Data set [1] concerns MAPK signaling (phospho-MEK1/2, phospho-ERK1/2) in A375 cells. Briefly: MEK1/2 and ERK1/2 phosphorylation. In kind it is cell-based. The conditions noted are these: for inhibition of ERK1/2 phosphorylation after 24 h: highest concentrations (10 μM).
A short description of data set [2]: BBB penetrance: brain and serum drug levels after single IV injection. The note with it: for Kp at 60 min: mouse, brain and serum, iv, 25 mg/kg. Format: in vivo, mice.
The next data set concerns the target P-glycoprotein (MDR1) (Homo sapiens, UniProt P08183). Kind of data set: MDR1-MDCK transwell assay. The conditions noted are these: for efflux ratio (ER): 10 μM compound, 90 min, substrate when ER ≥ 2.0.
For data set [3], the target named is P-gp (Homo sapiens, UniProt P08183). Briefly: calcein-AM P-gp inhibition assay in MDR1-MDCK cells. In kind it is cell-based.
The subject of data set [4] is MAPK signaling in CHL-1, a WT BRAF melanoma cell line. Kind of data set: MEK1/2 and ERK1/2 phosphorylation. In kind it is cell-based. The note with it: CHL-1 (WT BRAF), 1 h, identical treatment.
For another data set, the system named is cell lines with WT BRAF. Kind of data set: 72 h cell viability assay, cell lines with WT BRAF. Format: cell-based. The conditions noted are these: read-out: IC50, cell lines with WT BRAF.
Data set [5] has as its system AM-38 (V600E BRAF) and U118MG, T98G, U87 (WT BRAF) glioma cell lines. Briefly: cell culture cytotoxicity against glioma cell lines. In kind it is cell-based.
Data set [6] has as its system intracranially implanted A375 melanoma cells. Briefly: A375 intracranial mouse model of metastatic melanoma. In kind it is in vivo. The note with it: 50 mg/kg IP once a day, two cycles of 5 days, 10 doses; athymic nude mice.
Data set [7] relates to V600E BRAF melanoma cell lines. Briefly: 72 h cell viability assay, panel of V600E BRAF melanoma cell lines. Format: cell-based. The conditions noted are these: read-out: IC50, panel of V600E BRAF melanoma cell lines.
For data set [8], the system named is P-gp. Kind of data set: P-gp in vivo assay. The note with it: mice.
Data set [9] deals with V600E BRAF tumors in the brain. The conditions noted are these: cited from earlier work.

The Kp is the ratio of the level in a tissue or fluid to that in plasma or blood. For orientation: Papp means a coefficient for how fast a substance crosses the barrier. A high value points to ready permeation. As a reminder, the IC50 is the concentration that gives 50% inhibition.

Some results are limits rather than exact numbers.

P-glycoprotein (MDR1), sequence (P08183 whole entry): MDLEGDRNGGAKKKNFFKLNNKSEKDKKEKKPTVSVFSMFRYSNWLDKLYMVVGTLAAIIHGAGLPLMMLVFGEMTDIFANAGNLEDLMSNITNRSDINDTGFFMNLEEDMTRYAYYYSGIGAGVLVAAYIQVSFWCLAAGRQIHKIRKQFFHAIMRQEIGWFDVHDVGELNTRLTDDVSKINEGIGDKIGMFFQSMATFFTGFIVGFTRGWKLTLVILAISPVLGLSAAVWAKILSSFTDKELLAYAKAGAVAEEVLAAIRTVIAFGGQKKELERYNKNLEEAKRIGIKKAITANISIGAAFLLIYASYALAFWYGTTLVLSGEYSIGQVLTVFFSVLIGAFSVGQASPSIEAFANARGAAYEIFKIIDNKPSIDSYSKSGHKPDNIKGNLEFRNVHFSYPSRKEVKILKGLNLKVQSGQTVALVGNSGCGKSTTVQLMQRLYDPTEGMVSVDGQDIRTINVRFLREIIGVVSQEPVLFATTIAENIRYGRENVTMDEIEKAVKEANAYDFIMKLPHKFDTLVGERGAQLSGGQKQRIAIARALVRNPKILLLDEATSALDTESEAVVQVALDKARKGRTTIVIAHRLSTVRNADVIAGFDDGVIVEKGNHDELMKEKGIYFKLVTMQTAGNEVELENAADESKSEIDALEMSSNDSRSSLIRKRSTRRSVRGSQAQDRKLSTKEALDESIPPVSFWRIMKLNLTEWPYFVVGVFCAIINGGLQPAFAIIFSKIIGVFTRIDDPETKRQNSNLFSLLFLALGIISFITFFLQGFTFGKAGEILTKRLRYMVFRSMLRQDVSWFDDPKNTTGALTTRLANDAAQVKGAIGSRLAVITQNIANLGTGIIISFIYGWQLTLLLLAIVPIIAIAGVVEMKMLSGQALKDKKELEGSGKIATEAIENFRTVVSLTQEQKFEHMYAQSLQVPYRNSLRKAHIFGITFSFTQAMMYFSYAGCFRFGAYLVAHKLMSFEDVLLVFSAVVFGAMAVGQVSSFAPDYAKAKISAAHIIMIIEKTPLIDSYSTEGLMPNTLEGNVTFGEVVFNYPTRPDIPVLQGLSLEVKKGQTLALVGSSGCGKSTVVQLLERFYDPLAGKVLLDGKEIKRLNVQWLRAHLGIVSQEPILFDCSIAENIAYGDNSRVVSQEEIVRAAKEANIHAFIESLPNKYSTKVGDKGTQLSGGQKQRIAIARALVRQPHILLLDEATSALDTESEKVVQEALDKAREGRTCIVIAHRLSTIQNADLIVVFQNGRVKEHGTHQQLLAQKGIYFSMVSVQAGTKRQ
P-gp (Homo sapiens, UniProt P08183), sequence (P08183 whole entry): as above

As for `CCCS(=O)(=O)Nc1ccc(F)c(C(=O)c2c[nH]c3ncc(Cl)cc23)c1F` [PLX4720], the “inhibition of ERK1/2 phosphorylation after 24 h” value (from here on “inhibition … after 24 h”) in data set [1] is on record as “diminished inhibition”. Further, the Kp at 60 min in data set [2] lay in the range of 0.0014 to 0.0069.

On to `Cn1cnc2c(F)c(Nc3ccc(Br)cc3F)c(C(=O)NOCCO)cc21` [binimetinib], for which the “efflux ratio (ER)” value at P-glycoprotein (MDR1) (MDR1-MDCK transwell) is recorded as “high ERs”.

As to `C=C[C@H]1C[N@@]2CC[C@H]1C[C@@H]2[C@@H](O)c1ccnc2ccc(OC)cc12` [quinidine], the “P-gp inhibition (calcein-AM fluorescence)” value at P-gp [3] is given as “robust inhibition”. Also, the “efflux ratio (ER)” value on P-glycoprotein (MDR1) (MDR1-MDCK transwell) is reported as “high ERs”.

Turning to `CC(C)(C)c1ccc(C(O)CCCN2CCC(C(O)(c3ccccc3)c3ccccc3)CC2)cc1` (stereo not shown) [terfenadine], the Papp at 90 min, 10 μM at P-glycoprotein (MDR1) (human, MDCK-MDR1) was 1.2 ×10⁻⁶ cm/s.

Turning to `CCCS(=O)(=O)Nc1cc(Cl)cc(-c2nc(C(C)(C)C)sc2-c2ccnc(N)n2)c1F` [everafenib], in [4], the “inhibition of MAPK signaling” value is recorded as “not observed”. Besides, the IC50 in the data set with cell lines with WT BRAF is over 1000 nM; in data set [7] it was 2 to 10 nM. The “cytotoxicity against AM-38” value in [5] (AM-38, glioblastoma cell line with V600E BRAF) is listed as “comparable cytotoxicity to dabrafenib”. Further, the “activity against glioma cell-lines with WT BRAF” value in [5] (U118MG, T98G, U87) is “no activity”. The same molecule returned a median survival in data set [6] of 50.5 days. Also, the “inhibition of MAPK signaling (MEK1/2 and ERK1/2 phosphorylation)” value in data set [1] (1 h, 1 μM everafenib, 10 μM everafenib-CO2H) is “strongly inhibited”. The “inhibition … after 24 h” value in [1] is listed as “sustained”. Also, on P-glycoprotein (MDR1) (MDR1-MDCK transwell, A–B and B–A directions), the “permeability (Papp)” value fell in the range of 4.9 to 6.4 ×10⁻⁶ cm/s. In the data set on P-gp [8] (time not given), the “potentiation of brain penetrance with elacridar” value is listed as “did display potentiation with elacridar”. The brain-to-serum ratio in [2] (mice, 60 min after single 25 mg/kg IV injection) is given as 0.286 ng/g:ng/mL.

With `COc1cc2nc(N3CCN(C(=O)c4ccco4)CC3)nc(N)c2cc1OC` [prazosin], the “efflux ratio (ER)” value at P-glycoprotein (MDR1) (MDR1-MDCK transwell) is “high ERs”.

As for `COC(=O)N[C@@H](C)CNc1nccc(-c2cn(C(C)C)nc2-c2cc(Cl)cc(NS(C)(=O)=O)c2F)n1` [encorafenib], the Kp at 60 min in [2] was in the range of 0.0014 to 0.0069.

Take `COC(=O)c1cn2c3c(c(N4CCN(C)CC4)c(F)cc3c1=O)OC[C@@H]2C` [compound 7]: the “efflux ratio (ER)” value at P-glycoprotein (MDR1) (MDR1-MDCK transwell) came out at 5.66.

In turn, `CC(C)(C)c1nc(-c2cccc(NS(=O)(=O)c3c(F)cccc3F)c2F)c(-c2ccnc(N)n2)s1` [dabrafenib] displayed a median survival in data set [6] of 39 days. For the same molecule, in data set [1], the “inhibition … after 24 h” value is “diminished inhibition”. Also, in the data set on P-gp [8] (15 min, 2.5 mg/kg elacridar IV 30 min before 25 mg/kg compound IV), the “fold increase of brain-to-serum ratio by P-gp inhibition (elacridar)” value is 4.3 fold. Besides, the Kp at 60 min in [2] was 0.0014 to 0.0069. The “duration of intracranial response” value in [9] (combined with trametinib, melanoma brain metastases, clinical trials) is 6.5 months.

As to `CCCS(=O)(=O)Nc1ccc(F)c(C(=O)c2c[nH]c3ncc(-c4ccc(Cl)cc4)cc23)c1F` [vemurafenib], the “efflux ratio (ER)” value at P-glycoprotein (MDR1) (MDR1-MDCK transwell) is given as “high ERs”. Also, the patients responding result in [9] (pleomorphic xanthoastrocytoma patients, histology agnostic trial) is reported as “four out of seven”.

For `COc1cc2c(cc1OC)CN(CCc1ccc(NC(=O)c3cccc4c(=O)c5cccc(OC)c5[nH]c34)cc1)CC2` [elacridar], the “P-gp inhibition (calcein-AM fluorescence)” value at P-gp [3] is given as “robust inhibition”.

The values above are taken from publication PMC9612427 (Journal of the American Chemical Society, 2022).
